Laboratory results taken from article PMC7377239, “Cardiovascular Effects of Polychlorinated Biphenyls and Their Major Metabolites” (Environmental Health Perspectives, 2020).
Like-named read-outs stand apart in the source and are kept apart here.

Test system: iCell cardiomyocytes (human iPSC-derived cardiomyocytes)
Test: Intracellular Ca2+ flux / beating parameters in iCell cardiomyocytes (FLIPR tetra), 90 min or 24 h
Assay type: cell-based
Details: Homo sapiens, Cardiomyocyte, 0.00 µM = 100.00; for activity at 0.1 µM: 0.10 µM
Summary of the method: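 PODs were defined as the concentration crossing one SD of the vehicle-control means (0.5% DMSO) on four-parameter logistic fits of Ca2+ trace metrics (peak height, frequency, peak-spacing CV, decay/rise ratio). Traces came from 100 s, 8 Hz FLIPR reads at 37 °C on calcium-dye-loaded iCell cardiomyocytes. Before reading, cells were treated for 90 min or 24 h from 5× chemical plates spanning 0.05–500 µM, in triplicate.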

[1] = 1.5 h, 90min, read-out: cm.amp.avg.90min
[2] = 1.5 h, 90min, read-out: cm.amp.cv.90min
[3] = 1.5 h, 90min, read-out: cm.bpm.90min
[4] = 1.5 h, 90min, read-out: cm.decay.rise.90min
[5] = 1.5 h, 90min, read-out: cm.spacing.cv.90min
[6] = 24 h, 24hrs, read-out: cm.amp.avg.24hrs
[7] = 24 h, 24hrs, read-out: cm.amp.cv.24hrs
[8] = 24 h, 24hrs, read-out: cm.bpm.24hrs
[9] = 24 h, 24hrs, read-out: cm.decay.rise.24hrs
[10] = 24 h, 24hrs, read-out: cm.spacing.cv.24hrs

**Q.** Which activity at 0.01 µM [1] does the source give for `COc1cc(Cl)c(-c2cc(Cl)ccc2Cl)cc1Cl` [4-OMe PCB52] here?
**A.** The activity at 0.01 µM was 106%.

**Q.** And the activity at 0.01 µM [2]?
**A.** Its activity at 0.01 µM is 122%.

**Q.** What about the activity at 0.01 µM [3] of the same molecule?
**A.** The activity at 0.01 µM was 97.8%.

**Q.** What about the activity at 0.01 µM [4] of the same molecule?
**A.** The activity at 0.01 µM was 97.5%.

**Q.** And the activity at 0.01 µM [5]?
**A.** The activity at 0.01 µM was 105%.

**Q.** And the activity at 0.1 µM [1]?
**A.** The activity at 0.1 µM was 106%.

**Q.** What about the activity at 0.1 µM [2] of the same molecule?
**A.** Its activity at 0.1 µM is 92.7%.

**Q.** And the activity at 0.1 µM [3]?
**A.** Its activity at 0.1 µM is 102%.

**Q.** And the activity at 0.1 µM [4]?
**A.** Its activity at 0.1 µM is 99.6%.

**Q.** What about the activity at 0.1 µM [5] of the same molecule?
**A.** The activity at 0.1 µM was 88%.

**Q.** What about the activity at 1 µM [1] of the same molecule?
**A.** Its activity at 1 µM is 107%.

**Q.** And the activity at 1 µM [2]?
**A.** The activity at 1 µM was 113%.

**Q.** And the activity at 1 µM [3]?
**A.** The activity at 1 µM was 100%.

**Q.** And the activity at 1 µM [4]?
**A.** Its activity at 1 µM is 97%.

**Q.** What about the activity at 1 µM [5] of the same molecule?
**A.** The activity at 1 µM was 94.3%.

**Q.** What about the activity at 10 µM [1] of the same molecule?
**A.** The activity at 10 µM was 83.3%.

**Q.** And the activity at 10 µM [2]?
**A.** Its activity at 10 µM is 119%.

**Q.** And the activity at 10 µM [3]?
**A.** Its activity at 10 µM is 120%.

**Q.** What about the activity at 10 µM [4] of the same molecule?
**A.** Its activity at 10 µM is 91.9%.

**Q.** What about the activity at 10 µM [5] of the same molecule?
**A.** Its activity at 10 µM is 108%.

**Q.** What about the activity at 100 µM [1] of the same molecule?
**A.** Its activity at 100 µM is 0%.

**Q.** And the activity at 100 µM [2]?
**A.** The activity at 100 µM was 0%.

**Q.** And the activity at 100 µM [3]?
**A.** Its activity at 100 µM is 0%.

**Q.** What about the activity at 100 µM [4] of the same molecule?
**A.** Its activity at 100 µM is 0%.

**Q.** What about the activity at 100 µM [5] of the same molecule?
**A.** The activity at 100 µM was 0%.

**Q.** And the activity at 0.01 µM [6]?
**A.** Its activity at 0.01 µM is 89%.

**Q.** What about the activity at 0.01 µM [7] of the same molecule?
**A.** Its activity at 0.01 µM is 35.4%.

**Q.** What about the activity at 0.01 µM [8] of the same molecule?
**A.** The activity at 0.01 µM was 54.4%.

**Q.** And the activity at 0.01 µM [9]?
**A.** Its activity at 0.01 µM is 45.5%.

**Q.** What about the activity at 0.01 µM [10] of the same molecule?
**A.** Its activity at 0.01 µM is 56.2%.

**Q.** And the activity at 0.1 µM [6]?
**A.** Its activity at 0.1 µM is 164%.

**Q.** And the activity at 0.1 µM [7]?
**A.** Its activity at 0.1 µM is 69.5%.

**Q.** And the activity at 0.1 µM [8]?
**A.** Its activity at 0.1 µM is 109%.

**Q.** And the activity at 0.1 µM [9]?
**A.** Its activity at 0.1 µM is 100%.

**Q.** What about the activity at 0.1 µM [10] of the same molecule?
**A.** Its activity at 0.1 µM is 108%.

**Q.** And the activity at 1 µM [6]?
**A.** Its activity at 1 µM is 166%.

**Q.** What about the activity at 1 µM [7] of the same molecule?
**A.** The activity at 1 µM was 70.7%.

**Q.** And the activity at 1 µM [8]?
**A.** The activity at 1 µM was 95.5%.

**Q.** And the activity at 1 µM [9]?
**A.** The activity at 1 µM was 109%.

**Q.** And the activity at 1 µM [10]?
**A.** The activity at 1 µM was 102%.

**Q.** And the activity at 10 µM [6]?
**A.** Its activity at 10 µM is 138%.

**Q.** And the activity at 10 µM [7]?
**A.** Its activity at 10 µM is 81.2%.

**Q.** And the activity at 10 µM [8]?
**A.** Its activity at 10 µM is 104%.

**Q.** What about the activity at 10 µM [9] of the same molecule?
**A.** Its activity at 10 µM is 107%.

**Q.** What about the activity at 10 µM [10] of the same molecule?
**A.** Its activity at 10 µM is 102%.

**Q.** What about the activity at 100 µM [6] of the same molecule?
**A.** Its activity at 100 µM is 0%.

**Q.** What about the activity at 100 µM [7] of the same molecule?
**A.** Its activity at 100 µM is 0%.

**Q.** What about the activity at 100 µM [8] of the same molecule?
**A.** Its activity at 100 µM is 0%.

**Q.** What about the activity at 100 µM [9] of the same molecule?
**A.** Its activity at 100 µM is 0%.

**Q.** What about the activity at 100 µM [10] of the same molecule?
**A.** The activity at 100 µM was 0%.
